PubChem BioAssay (NCI)
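1) Cells in 96-well plates. 2) Compound, 48 h, 5 concentrations. 3) Linear interpolation between surrounding doses. 4) Unreached endpoint = highest concentration. GI50: concentration for 50% inhibition of growth. TGI marks complete inhibition of growth.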

Columns and labels:
Assay in all cases: NCI-60 cell line screen, 48 h
A498 renal = system: A498 renal
ACHN renal = system: ACHN renal
COLO 205 colon = system: COLO 205 colon
HCC-2998 colon = system: HCC-2998 colon
HCT-116 colon = system: HCT-116 colon
MALME-3M melanoma = system: MALME-3M melanoma
MDA-MB-435 = system: MDA-MB-435
SNB-19 CNS = system: SNB-19 CNS
UACC-62 melanoma = system: UACC-62 melanoma
UO-31 renal = system: UO-31 renal

SMILES	TGI (A498 renal)	TGI (ACHN renal)	TGI (COLO 205 colon)	TGI (HCC-2998 colon)	TGI (HCT-116 colon)	TGI (MALME-3M melanoma)	TGI (MDA-MB-435)	TGI (SNB-19 CNS)	TGI (UACC-62 melanoma)	TGI (UO-31 renal)	GI50 (A498 renal)	GI50 (ACHN renal)	GI50 (COLO 205 colon)	GI50 (HCC-2998 colon)	GI50 (HCT-116 colon)	GI50 (MALME-3M melanoma)	GI50 (MDA-MB-435)	GI50 (SNB-19 CNS)	GI50 (UACC-62 melanoma)	GI50 (UO-31 renal)
CC(=O)N(C(=O)CC(=O)N1N=C(c2ccccc2)C(N=Nc2ccccc2[N+](=O)[O-])C1=O)c1ccc(Cl)cc1 (stereo not given)	> 10 µM	> 10 µM	> 10 µM	> 10 µM	> 10 µM	> 10 µM	> 10 µM	> 10 µM	> 10 µM	> 10 µM										
COCCOc1ccc(-c2nc3ccc(-c4nc5ccc(N6CCN(C)CC6)cc5[nH]4)cc3[nH]2)cc1	3.39 µM	> 100 µM	3.05 µM	3.77 µM	2.46 µM	1.55 µM	2.14 µM	10.5 µM	2.02 µM	> 100 µM	1.21 µM	10.7 µM	0.371 µM	1.78 µM	0.358 µM	0.165 µM	0.621 µM	1.87 µM	0.365 µM	29.4 µM
CCCCCCCCCCn1cc[n+](C)c1	9.73 µM	> 49.2 µM	7.01 µM	11.2 µM	> 36.9 µM	17.6 µM	8.64 µM	32.9 µM	10.6 µM	50.7 µM	0.383 µM	3.38 µM	1.7 µM	1.56 µM	1.37 µM	2.26 µM	1.4 µM	3.96 µM	2.53 µM	10.3 µM
CN1CC[C@@H](NC(=O)Nc2ccc(C#N)cc2)C[C@@H]1c1nc2ccccc2[nH]1	> 65.7 µM	> 100 µM	> 100 µM	> 56.4 µM	> 100 µM	> 100 µM	> 100 µM	> 100 µM	> 100 µM	> 100 µM	> 27.4 µM	> 86.5 µM	> 80.6 µM	> 41.3 µM	> 87.1 µM	> 100 µM	> 100 µM	> 100 µM	98.8 µM	> 78.1 µM
COc1cccc(C(=O)NC(c2ccc(C)cc2)c2cc(Cl)c3cccnc3c2O)c1 (stereo not given)	11.6 µM	10.4 µM	1.86 µM	15.1 µM	14.4 µM	15.6 µM	23.7 µM	29 µM	3.13 µM	10.8 µM	1.28 µM	0.445 µM	0.387 µM	0.786 µM	0.495 µM	1.42 µM	0.56 µM	0.371 µM	0.357 µM	0.362 µM
c1ccc(Sc2ncnc3ccccc23)cc1	39.2 µM	31.6 µM	28.3 µM	28.7 µM	23.7 µM	29.8 µM	32.5 µM	51.5 µM	23.5 µM	21.1 µM	15.4 µM	11 µM	15 µM	15.4 µM	10.9 µM	10.8 µM	8.19 µM	18.6 µM	9.06 µM	5.07 µM
O=S(=O)(c1ccccc1)c1cccc2c1NCCC2	> 100 µM	> 100 µM	> 10 µM	> 100 µM	> 100 µM	> 100 µM	> 100 µM	> 100 µM	> 10 µM	> 100 µM										
Nc1n[nH]c2cc(F)c([C@@H]3Nc4ccc5[nH]ncc5c4[C@H]4C5CCC(C5)[C@@H]34)cc12 (stereo not given in full)	0.288 µM	26.1 µM	0.527 µM	1.93 µM	1.24 µM	28.3 µM	0.306 µM	> 35 µM	10 µM	30.8 µM	0.0787 µM	0.231 µM	0.162 µM	0.177 µM	0.174 µM	1.47 µM	0.0854 µM	1.03 µM	0.218 µM	0.651 µM
CN(C)CC1CC/C(=C\c2ccc(O)cc2)C1=O (stereo not given)	21.3 µM	10.7 µM	3.77 µM	25.5 µM	4.09 µM	6.62 µM	10.8 µM	31.3 µM	15.5 µM	26.5 µM										
COc1ccc2nc3cc(Cl)ccc3c(NCCNCC(C)O)c2c1 (stereo not given)	2.84 µM	7.22 µM	2.79 µM	2.94 µM	3.17 µM	3.68 µM	3.1 µM	9.78 µM	4.31 µM	4.85 µM	1.28 µM	1.43 µM	1.11 µM	1.38 µM	0.751 µM	1.82 µM	1.51 µM	2.19 µM	2.01 µM	1.73 µM
COc1ccc2nc(NC(=O)CSc3nnc4n3S(=O)(=O)c3ccccc3N4c3ccccc3)sc2c1	> 100 µM	> 100 µM	> 100 µM	> 100 µM	> 100 µM	> 100 µM	> 100 µM	> 100 µM	> 100 µM	> 100 µM	> 100 µM	> 100 µM	> 100 µM	> 100 µM	94.1 µM	> 100 µM	> 100 µM	> 100 µM	48.5 µM	> 100 µM
O=C(CCCSc1nc(-c2ccccc2)cc(-c2ccccc2)n1)NO	3.1 µM	1.5 µM	5.1 µM	6.95 µM	11.7 µM	9.71 µM	10.1 µM	13.8 µM	3.21 µM	1.27 µM	1.12 µM	0.358 µM	1.86 µM	2.05 µM	0.657 µM	1.95 µM	2.05 µM	2.67 µM	1.32 µM	0.274 µM
